A short description of this data set: RP, Thermo Scientific Hypersil GOLD aQ, 100 × 2.1 mm, 1.9 µm, 30 °C, 0.3 mL/min, estimated dead time 0.73 min; A: water + 0.1% formic acid; B: methanol + 0.1% formic acid + 4 mM ammonium formate; gradient (min/%B) 0/0 1/0 8/100 10/100. The conditions noted are these: stereoisomer not certain.

Consider `CC1=CC2OC3C(O)C(O)C(C)(C2(CO)CC1OC(=O)CC(C)C)C31CO1` (stereo not given), for which the LC retention time was 6.17 min.
In the case of `CC(=O)OCC12CC(O)C(C)=CC1OC1C(O)C(OC(C)=O)C2(C)C12CO2` (stereo not given), the LC retention time was 4.9 min.
With `CC1CCCC(=O)CCCCCc2cc(O)cc(O)c2C(=O)O1` (stereo not given), the LC retention time is 7.1 min.
The value for `CC1CCCC(=O)CCCC=Cc2cc(O)cc(O)c2C(=O)O1` (stereo not given) was 7.16 min; that for `CC1=CC2OC3C(O)C(O)C(C)(C34CO4)C2(CO)C(O)C1=O` (stereo not given) was 3.7 min.
Turning to `CC1=C2C(=COC(C)C2C)C(=O)C(C(=O)O)=C1O` (stereo not given), the LC retention time was 6.53 min.
As for `COc1cc2c(c3oc4cccc(O)c4c(=O)c13)C1C=COC1O2` (stereo not given), the LC retention time was 7.49 min.
As to `O=c1cc(CO)occ1O`, the LC retention time is 2.6 min.
Under `COc1cc(=O)oc(C=CC=CC=CC(C)=CC2(C)OC(C)C(C)(O)C2O)c1C` (stereo not given) stands 7.23 min; under `COC1C(OC(=O)C=CC=CC=CC=CC(=O)O)CCC2(CO2)C1C1(C)OC1CC=C(C)C` (stereo not given), 7.52 min.
The value for `CC(C)C1(NC(=O)C2CC3c4cccc5[nH]cc(c45)CC3N(C)C2)OC2(O)C3CCCN3C(=O)C(Cc3ccccc3)N2C1=O` (stereo not given) was 6.46 min; that for `CC1=CC2OC3C(O)CC(C)(C34CO4)C2(CO)C(O)C1=O` (stereo not given) was 4.26 min.
The value for `COc1cc2c(c3oc(=O)c4c(c13)CCC4=O)C1C=COC1O2` (stereo not given) was 6.26 min; that for `COc1ccc2c3c4n(c2c1)C(C=C(C)C)OOC(C)(C)CC4N1C(=O)C2CCCN2C(=O)C1(O)C3O` (stereo not given) was 7.33 min; that for `CC(=O)OCC12C(C=C(C)C(=O)C1O)OC1C(O)CC2(C)C12CO2` (stereo not given) was 5.25 min.
As for `COc1cc2c(c3oc(=O)c4c(c13)CCC4=O)C1(O)C=COC1O2` (stereo not given), the LC retention time was 5.77 min.
With `CC(=O)OCC12CC(OC(=O)CC(C)C)C(C)=CC1OC1C(O)C(O)C2(C)C12CO2` (stereo not given), the LC retention time was 6.52 min.
The value for `COc1cc2c(c3oc(=O)c4c(c13)CCC4=O)C1CCOC1O2` (stereo not given) was 6.11 min.
Regarding `COc1cc2c(c3oc(=O)c4c(c13)CCOC4=O)C1C=COC1O2` (stereo not given), the LC retention time was 5.89 min.
As to `CC(C)CC1C(=O)N2CCCC2C2(O)OC(C)(NC(=O)C3C=C4c5cccc6[nH]cc(c56)CC4N(C)C3)C(=O)N12` (stereo not given), the LC retention time was 6.11 min.
Take `CCCCC(C)C(OC(=O)CC(CC(=O)O)C(=O)O)C(CC(C)CCCCCCC(O)CC(O)C(C)N)OC(=O)CC(CC(=O)O)C(=O)O` (stereo not given): the LC retention time was 7.19 min.
With `CC(C)CC1C(=O)N2CCCC2C2(O)OC(NC(=O)C3C=C4c5cccc6[nH]cc(c56)CC4N(C)C3)(C(C)C)C(=O)N12` (stereo not given), the LC retention time is 6.5 min.
For `CC(C)C1(NC(=O)C2C=C3c4cccc5[nH]cc(c45)CC3N(C)C2)OC2(O)C3CCCN3C(=O)C(Cc3ccccc3)N2C1=O` (stereo not given), the LC retention time was 6.55 min.
With `CC1CCC2C(C)(C)C(O)CCC2(C)C12Cc1c(O)cc3c(c1O2)CNC3=O` (stereo not given), the LC retention time was 7.51 min.
In the case of `CC(=O)OC1CC2(C)C3(CO3)C1OC1C=C(C)C(=O)C(O)C12CO` (stereo not given), the LC retention time is 5.49 min.
With `CC1CCCC(O)CCCCCc2cc(O)cc(O)c2C(=O)O1` (stereo not given), the LC retention time was 6.88 min.
`C=CC(C)(C)C12C=C(O)C(=O)N3C(=Cc4cnc[nH]4)C(=O)NC31N(OC)c1ccccc12` (stereo not given): the LC retention time is 6.11 min.
The value for `O=C1C=C2C(=CCOC2O)O1` (stereo not given) was 2.12 min; that for `COCC1OC(=O)c2coc3c2C1(C)C1=C(C3=O)C2CCC(=O)C2(C)CC1OC(C)=O` (stereo not given) was 6.14 min; that for `CC(C)CC1NC(=O)C(C)N(C)C(=O)CNC(=O)C(=Cc2ccccc2)N(C)C1=O` (stereo not given) was 6.66 min.
Under `COc1c(C)c2c(c(O)c1CC=C(C)CCC(=O)O)C(=O)OC2` stands 6.77 min; under `CC1=CC2c3cccc4[nH]cc(c34)CC2N(C)C1` (stereo not given), 5.35 min; under `CN1C(=O)C23CC4=CC=CC(O)C4N2C(=O)C1(CO)SS3` (stereo not given), 5.48 min.
Under `CC(C)(O)C1OC2CCC3(C)C(O)(CCC4Cc5c([nH]c6ccccc56)C43C)C2=CC1=O` (stereo not given) stands 7.81 min.
Take `Cc1cc(O)cc2oc(=O)c3c(O)cc(O)cc3c12`: the LC retention time was 6.89 min.
In the case of `CCCCC(C)C(OC(=O)CC(CC(=O)O)C(=O)O)C(CC(C)CC(O)CCCCCCC(O)C(C)N)OC(=O)CC(CC(=O)O)C(=O)O` (stereo not given), the LC retention time is 6.99 min.
Regarding `CC(=O)OCC12CC(OC(=O)CC(C)C)C(C)=CC1OC1C(O)C(OC(C)=O)C2(C)C12CO2` (stereo not given), the LC retention time is 6.78 min.
Under `CC1=CC2OC3C(OC4OC(CO)C(O)C(O)C4O)CC(C)(C34CO4)C2(CO)C(O)C1=O` (stereo not given) stands 4.29 min.
The value for `COc1cc2c(c3oc(=O)c4c(c13)CCOC4=O)C1CCOC1O2` (stereo not given) was 5.8 min.
For the compound `C=C1C2OC3C=C(C)C(=O)C(O)C3(CO)C1(C)CC2O` (stereo not given), the LC retention time is 4.77 min.
Take `CCCCC(C)C(OC(=O)CC(CC(=O)O)C(=O)O)C(CC(C)CC(O)CCCCC(O)CC(O)C(C)N)OC(=O)CC(CC(=O)O)C(=O)O` (stereo not given): the LC retention time was 6.81 min.
Take `CC1=CC2OC3C(O)C(O)C(C)(C2(CO)CC1O)C31CO1` (stereo not given): the LC retention time was 3.76 min.
As to `CC(=O)OC1C(O)C2OC3C=C(C)C(=O)C(O)C3(CO)C1(C)C21CO1` (stereo not given), the LC retention time is 4.69 min.
The value for `C=CC(C)(C)C12CC3C(=O)NC(=Cc4cnc[nH]4)C(=O)N3C1Nc1ccccc12` (stereo not given) was 6.61 min; that for `CC1Cc2ccc(C(=O)NC(Cc3ccccc3)C(=O)O)c(O)c2C(=O)O1` (stereo not given) was 6.78 min.

Values taken from the RepoRT retention time repository (doi:10.1016/j.foodchem.2018.11.056).
